Reference: patent US20110098309A1, “METHODS OF INHIBITING THE FORMATION OF AMYLOID-BETA DIFFUSABLE LIGANDS USING ACYLHYDRAZIDE COMPOUNDS” (priority 2007, published 2011)
Values joined by “and” are separate entries in the source; they are usually repeats but may differ in a detail not shown here. Equal entries are not always repeated.

What was measured:
Aβ1-42 = Aβ1-42 (Homo sapiens, UniProt P05067); experiment: FRET assay of Aβ1-42 oligomer (ADDL) assembly inhibition; assay type: biochemical; details: 0.2 μM FITC-Aβ(1-42) and 0.8 μM Aβ(1-42), 37° C., six concentrations from about 10 μM to about 0.03 μM
Procedure, shortened: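 Fluorescein-quenching FRET read with 0.2 μM FITC-Aβ(1-42) plus 0.8 μM Aβ(1-42) in 25 mM MOPS-Tris pH 8.0, 100 mM MgCl2, 37° C. Compound tested at six concentrations from about 10 μM down to about 0.03 μM. Fluorescence read every five minutes over about three hours; inhibition seen as absent or attenuated quenching.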

Aβ1-42 ADDLs = target: T1, Aβ1-42 ADDLs (Homo sapiens, UniProt P05067); experiment: Alternating Lever Cyclic Ratio (ALCR) rat model; assay type: in vivo; details: for Approach Errors / Perseveration Errors: injection via cannula into lateral ventricle, compared to baseline error rates
T1 construct: Synthetic Aβ1-42 powder was dissolved in 1,1,1,3,3,3-hexafluorisopropanol (HFIP)
Method: Preparations of Aβ1-42 ADDLs and a potential therapeutic compound under the Alternating Lever Cyclic Ratio (ALCR) rat model of AD were tested to show in vivo efficacy. This highly sensitive model has been able to detect cognitive deficits due to direct injection of cell-derived Aβ oligomers into rat brain. Using this technique, a direct injection of ADDLs made from synthetic Aβ1-42 and a putative therapeutic compound under the ALCR procedure were tested.
In this task, rats learned a complex sequence of lever-pressing requirements in order to earn food reinforcement in a two-lever experimental chamber. Subjects alternated between two levers by switching to the other lever after pressing the first lever enough to get food reward. The exact number of presses required for each food reward changed, first increasing from 2 responses per food pellet up to 56 presses per food pellet, then decreasing back to 2 responses per pellet. Intermediate values were based on the quadratic function, x^2−x. One cycle was an entire ascending and descending sequence of these lever press requirements (e.g., 2, 6, 12, 20, 30, 42, 56, 56, 42, 30, 20, 12, 6, and 2 presses per food reward). Six such full cycles were presented during each daily session.
Synthetic Aβ1-42 powder was dissolved in 1,1,1,3,3,3-hexafluorisopropanol (HFIP) to afford a solution of Aβ1-42 in HFIP of about 1 mM and allowed to incubate at ambient temperature for about 1 h. The resulting solution was chilled on ice for about 5-10 min, then aliquoted into eppendorf tubes to provide about 50 μL of solution per tube. The tubes were then placed in a chemical fume hood and allowed to stand overnight to allow the HFIP to evaporate under a slow stream of nitrogen. To remove final traces of HFIP, the tubes were subjected to two SpeedVac cycles of 15 min at room temperature and about 15 to 25 mm Hg of vacuum. The resulting films of monomerized Aβ1-42 peptide were stored over desiccant at −80° C. until used.
A tube of monomerized Aβ1-42 peptide was warmed to room temperature and the Aβ1-42 peptide was dissolved in anhydrous DMSO to afford a peptide stock DMSO solution containing about 10 μM to about 100 μM Aβ1-42 peptide in DMSO.
The concentration of the test compound is listed below in Table 3.
For the Aβ1-42 peptide only treatment, peptide stock DMSO solution was added to 37° C. neural basal to obtain the requisite Aβ1-42 peptide monomer concentration, provided that the maximum concentration of DMSO is 1% or less, and the tube was vortexed for 30 to 60 seconds, spun down briefly in a microfuge and incubated at 37° C. for 15 min prior to the start of injections.
For the Aβ1-42 peptide plus test compound treatment, peptide stock DMSO solution was added to 37° C. compound neural basal media solution to obtain the requisite Aβ1-42 peptide monomer concentration, provided that the maximum concentration of DMSO is 1% or less, and the tube was vortexed for 30 to 36 seconds, spun down briefly in a microfuge and incubated at 37° C. for 15 min prior to the start of injections.
For control injections, compound neural basal media solution was incubated at 37° C. for 15 min prior to the start of injections.
Rats: Rats are trained under ALCR until their error rates are stable. Once the rats are placed upon the final ALCR procedure, training sessions are conducted 7 days each week until the end of the study.
Surgery: All rats received a single 28 gauge cannula, which was permanently affixed to the skull, and aimed at the lateral ventricle. Half of the rats received cannula in the right ventricle and half receive cannula in the left ventricle. Rats were allowed 5 days to recover from surgery before training resumed.
Injection of Test Material and ALCR Testing: Test were conducted about every fourth day. Animals received a 10-20 μL injection of control, peptide, or peptide plus compound solutions via the implanted cannula over about 3 to 4 minutes. Animals were tested about 3 hours following injection. […]

[1] = 1 nM ADDLs + 2 μM compound, rats tested about 3 hours after injection
[2] = 2 μM compound alone (no ADDLs), rats
[3] = ADDLs injected along with compound, rats
[4] = 27 nM Aβ1-42 monomer alone, rats

Aβ1-42, sequence (P05067 672-713 limits assumed): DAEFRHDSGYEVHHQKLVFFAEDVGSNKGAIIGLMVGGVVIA
T1 sequence (P05067 672-713 limits assumed): as above

O=C(C/C(=N/NC(=O)c1ccccc1O)C(F)(F)F)c1cccs1 [Compound 2, 2-hydroxy-N′-(1,1,1-trifluoro-4-oxo-4-(thiophen-2-yl)butan-2-ylidene)benzohydrazide]
IC50 (Aβ1-42): 4.5 µM | Approach Errors (Aβ1-42 ADDLs; [1]): 115% | Perseveration Errors (Aβ1-42 ADDLs; [1]): 105% | Approach Errors (Aβ1-42 ADDLs; [2]): 92% | Perseveration Errors (Aβ1-42 ADDLs; [2]): 85% | Perseveration error (in words) (Aβ1-42 ADDLs; [3]): decreased significantly

ADDLs: amyloid beta-derived diffusable ligands: soluble, oligomeric, globular, non-fibrillar, neurotoxic Aβ1-42 peptides, made from synthetic Aβ1-42 [reference compound]
Approach Errors (Aβ1-42 ADDLs; 1 nM ADDLs alone, rats): 102% and 142% | Perseveration Errors (Aβ1-42 ADDLs; 1 nM ADDLs alone, rats): 133% and 127% | Perseveration error (in words) (Aβ1-42 ADDLs; ADDLs compared to vehicle or Aβ1-42 monomer alone, rats): increased the Perseveration error

O=C(N/N=C/c1c(O)ccc2ccccc12)c1ccccc1O [Compound 89, 2-hydroxy-N′-((2-hydroxy-naphthalen-1-yl)methylene)benzohydrazide]
Approach Errors (Aβ1-42 ADDLs; [1]): 100% and 111% | Perseveration Errors (Aβ1-42 ADDLs; [1]): 92% and 107% | Approach Errors (Aβ1-42 ADDLs; [2]): 101% | Perseveration Errors (Aβ1-42 ADDLs; [2]): 112% | Perseveration error (in words) (Aβ1-42 ADDLs; [3]): decreased significantly

Aβ1-42 Monomer: monomerized synthetic Aβ1-42 peptide [reference compound]
Approach Errors (Aβ1-42 ADDLs; [4]): 105% | Perseveration Errors (Aβ1-42 ADDLs; [4]): 117%

COc1ccc(O)c(/C=N/NC(=O)c2cc3ccccc3cc2O)c1 [Compound 37, 3-hydroxy-N′-(2-hydroxy-5-methoxy-benzylidene)-2-naphtho hydrazide]
IC50 (Aβ1-42): 1.2 µM

C/C(CC(=O)N1CCC(c2ccccc2)CC1)=N\NC(=O)c1ccccc1O [Compound 29, 2-hydroxy-N′-(4-oxo-4-(4-phenylpiperidin-1-yl)butan-2-ylidene)benzohydrazide]
IC50 (Aβ1-42): 26.7 µM

COc1ccc(O)c(/C=N/NC(=O)c2cc(-c3ccc4c(c3)OCO4)n[nH]2)c1 [Compound 78, 3-(benzo[d][1,3]dioxol-5-yl)-N′-(2-hydroxy-5-methoxybenzylidene)-1H-pyrazole-5-carbohydrazide]
IC50 (Aβ1-42): 11.6 µM

O=C(C/C(=N\NC(=O)c1sc2ccccc2c1Cl)C(F)(F)F)c1ccco1 [Compound 15, 3-chloro-N′-(1,1,1-trifluoro-4-(furan-2-yl)-4-oxobutan-2-ylidene)benzo[b]thiophene-2-carbohydrazide]
IC50 (Aβ1-42): 9.5 µM

COc1ccc(O)c(/C=N/NC(=O)c2cc(F)ccc2O)c1 [Compound 75, 5-fluoro-2-hydroxy-N′-(2-hydroxy-5-methoxy-benzylidene)benzohydrazide]
IC50 (Aβ1-42): 10.9 µM

Cc1cccc(C(=O)N/N=C(/CC(=O)c2cccs2)C(F)(F)F)c1O [Compound 25, 2-hydroxy-3-methyl-N′-(1,1,1-trifluoro-4-oxo-4-(thiophen-2-yl)butan-2-ylidene)benzohydrazide]
IC50 (Aβ1-42): 16.3 µM

Cn1nccc1C(=O)C/C(=N/NC(=O)c1ccccc1O)C(F)(F)F [Compound 9, 2-hydroxy-N′-(1,1,1-trifluoro-4-(1-methyl-1H-pyrazol-5-yl)-4-oxobutan-2-ylidene) benzohydrazide]
IC50 (Aβ1-42): 8.2 µM
